Source: patent publication US20240383901A1, “SUBSTITUTED PYRROLO[2,3-D]PYRIMIDINES, THEIR PREPARATION AND THEIR THERAPEUTIC APPLICATION” (SANOFI, priority 2021, published 2024)
pIC50: −log10 of the molar value.

Legend:
[1] = molecular target: T1, full-length LRRK2 wild type (Homo sapiens, UniProt Q5S007); assay: LRRK2 WT assay (Assay A, Lanthascreen TR-FRET, 500 uM ATP); type: biochemical; settings: Assay A (values without *)
T1 construct: DYDDDDK tagged full-length LRRK2 wild type is used

[2] = molecular target: T2, full-length LRRK2 G2019S (Homo sapiens, UniProt Q5S007, G2019S); assay: LRRK2-G2019S kinase activity assay (Lanthascreen TR-FRET); type: biochemical; settings: 1.1 mM ATP
T2 construct: DYKDDDDK (FLAG)
T2 sequence (Q5S007 whole entry G2019S): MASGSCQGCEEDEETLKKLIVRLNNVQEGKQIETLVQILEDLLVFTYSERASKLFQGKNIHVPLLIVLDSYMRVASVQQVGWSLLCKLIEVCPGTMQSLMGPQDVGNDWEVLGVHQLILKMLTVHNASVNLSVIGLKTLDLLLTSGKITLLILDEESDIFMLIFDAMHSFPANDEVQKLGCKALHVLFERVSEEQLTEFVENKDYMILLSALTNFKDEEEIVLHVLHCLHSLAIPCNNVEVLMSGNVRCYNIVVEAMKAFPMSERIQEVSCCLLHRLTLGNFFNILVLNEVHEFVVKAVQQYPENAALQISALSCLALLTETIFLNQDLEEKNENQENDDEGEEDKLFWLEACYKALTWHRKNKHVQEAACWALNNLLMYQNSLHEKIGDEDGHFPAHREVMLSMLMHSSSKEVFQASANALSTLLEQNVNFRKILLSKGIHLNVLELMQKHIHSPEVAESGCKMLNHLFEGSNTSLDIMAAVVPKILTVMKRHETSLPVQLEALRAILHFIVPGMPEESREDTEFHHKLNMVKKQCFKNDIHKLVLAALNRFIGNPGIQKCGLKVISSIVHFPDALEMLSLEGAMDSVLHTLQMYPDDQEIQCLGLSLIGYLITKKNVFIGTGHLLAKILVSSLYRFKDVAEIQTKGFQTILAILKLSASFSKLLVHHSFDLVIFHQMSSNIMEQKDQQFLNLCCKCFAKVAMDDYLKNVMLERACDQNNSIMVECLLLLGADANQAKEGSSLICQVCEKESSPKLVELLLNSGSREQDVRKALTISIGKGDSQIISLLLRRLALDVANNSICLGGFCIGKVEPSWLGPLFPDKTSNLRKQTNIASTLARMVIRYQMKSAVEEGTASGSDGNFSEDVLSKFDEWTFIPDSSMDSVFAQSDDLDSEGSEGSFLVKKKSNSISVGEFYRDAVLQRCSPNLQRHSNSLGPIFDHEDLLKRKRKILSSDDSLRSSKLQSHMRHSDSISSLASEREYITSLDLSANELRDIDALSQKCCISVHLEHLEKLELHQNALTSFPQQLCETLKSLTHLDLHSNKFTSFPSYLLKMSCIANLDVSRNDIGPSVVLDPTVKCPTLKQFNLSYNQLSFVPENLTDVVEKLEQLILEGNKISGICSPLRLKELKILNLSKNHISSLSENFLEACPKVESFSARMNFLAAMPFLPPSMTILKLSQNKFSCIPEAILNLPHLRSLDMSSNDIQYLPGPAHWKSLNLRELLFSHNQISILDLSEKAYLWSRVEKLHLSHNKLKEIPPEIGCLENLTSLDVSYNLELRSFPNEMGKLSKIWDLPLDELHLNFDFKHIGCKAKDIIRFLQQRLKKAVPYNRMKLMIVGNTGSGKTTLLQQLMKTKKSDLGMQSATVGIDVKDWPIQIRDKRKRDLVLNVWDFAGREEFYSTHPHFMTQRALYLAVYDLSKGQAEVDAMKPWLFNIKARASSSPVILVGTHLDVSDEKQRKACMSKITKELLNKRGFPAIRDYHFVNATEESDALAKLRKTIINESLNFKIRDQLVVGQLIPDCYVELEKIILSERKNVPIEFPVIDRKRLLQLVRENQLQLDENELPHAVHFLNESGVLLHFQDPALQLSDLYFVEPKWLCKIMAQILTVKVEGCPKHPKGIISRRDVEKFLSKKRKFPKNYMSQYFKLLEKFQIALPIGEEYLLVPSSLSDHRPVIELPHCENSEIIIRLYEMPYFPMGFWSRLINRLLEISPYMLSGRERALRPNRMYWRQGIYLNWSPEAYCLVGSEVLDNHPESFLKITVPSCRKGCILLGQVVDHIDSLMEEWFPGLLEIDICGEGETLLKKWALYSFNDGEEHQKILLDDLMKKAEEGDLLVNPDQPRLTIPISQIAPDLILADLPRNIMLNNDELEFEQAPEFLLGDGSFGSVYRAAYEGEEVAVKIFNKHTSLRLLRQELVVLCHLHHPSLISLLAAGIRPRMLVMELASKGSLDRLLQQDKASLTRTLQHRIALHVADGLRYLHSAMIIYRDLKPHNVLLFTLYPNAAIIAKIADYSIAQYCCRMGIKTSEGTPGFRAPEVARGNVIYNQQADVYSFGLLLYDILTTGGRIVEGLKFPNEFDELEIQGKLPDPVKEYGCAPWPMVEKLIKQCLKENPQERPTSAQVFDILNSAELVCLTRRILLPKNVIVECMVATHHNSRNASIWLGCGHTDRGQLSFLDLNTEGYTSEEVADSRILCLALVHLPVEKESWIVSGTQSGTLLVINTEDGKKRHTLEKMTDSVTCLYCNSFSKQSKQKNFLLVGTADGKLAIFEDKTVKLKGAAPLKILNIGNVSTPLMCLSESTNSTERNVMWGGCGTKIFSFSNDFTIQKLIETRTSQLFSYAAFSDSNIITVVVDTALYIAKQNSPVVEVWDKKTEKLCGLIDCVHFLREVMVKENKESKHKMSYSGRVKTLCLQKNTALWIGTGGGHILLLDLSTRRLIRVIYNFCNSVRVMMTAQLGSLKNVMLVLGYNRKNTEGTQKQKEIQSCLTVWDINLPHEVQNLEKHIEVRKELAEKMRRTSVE

T1 sequence (Q5S007 whole entry): as the sequence (Q5S007 whole entry G2019S) above, with S2019G counted along it

SMILES	pIC50 [1]	pIC50 [2]
CC(=O)N1CC(Oc2nn(C)cc2Nc2ncc3cc(C#N)n([C@H]4COC[C@@H]4C)c3n2)C1 [Example 1, 2-[[3-(1-acetylazetidin-3-yl)oxy-1-methyl-pyrazol-4-yl]amino]-7-[(3R,4R)-4-methyltetrahydrofuran-3-yl]pyrrolo[2,3-d]pyrimidine-6-carbonitrile]	8.22	8.30
C[C@H]1COC[C@@H]1n1c(C#N)cc2cnc(Nc3cn(C)nc3OC3COC3)nc21 [Example 8, 2-[[1-methyl-3-(oxetan-3-yloxy)pyrazol-4-yl]amino]-7-[(3R,4R)-4-methyltetrahydrofuran-3-yl]pyrrolo[2,3-d]pyrimidine-6-carbonitrile]	8.22	8.40
CC(CO)n1cc(Nc2ncc3cc(C#N)n([C@H]4COC[C@@H]4C)c3n2)c(OC2COC2)n1 (stereo partly drawn) [Example 9, 2-[[1-[2-Hydroxy-1-methyl-ethyl]-3-(oxetan-3-yloxy)pyrazol-4-yl]amino]-7-[(3R,4R)-4-methyltetrahydrofuran-3-yl]pyrrolo[2,3-d]pyrimidine-6-carbonitrile]	8.30	8.30
C[C@H]1COC[C@@H]1n1c(C#N)cc2cnc(Nc3cn(CS(C)(=O)=O)nc3OC3COC3)nc21 [Example 14, 2-[[1-(Methylsulfonylmethyl)-3-(oxetan-3-yloxy)pyrazol-4-yl]amino]-7-[(3R,4R)-4-methyltetrahydrofuran-3-yl]pyrrolo[2,3-d]pyrimidine-6-carbonitrile]	8.70	8.70
[2H]C([2H])([2H])n1cc(Nc2ncc3cc(C#N)n([C@H]4COC[C@@H]4C)c3n2)c(OC2COC2)n1 [Example 19, 2-((1-(Methyl-d3)-3-(oxetan-3-yloxy)-1 H-pyrazol-4-yl)amino)-7-((3R,4R)-4-methyltetrahydrofuran-3-yl)-7H-pyrrolo[2,3-d]pyrimidine-6-carbonitrile]	8.30	8.30
C[C@H]1COC[C@@H]1n1c(C#N)cc2cnc(Nc3ccc(C(C)(C)O)cc3OC3COC3)nc21 [Example 20, 2-((4-(2-Hydroxypropan-2-yl)-2-(oxetan-3-yloxy)phenyl)amino)-7-((3R,4R)-4-methyltetrahydrofuran-3-yl)-7H-pyrrolo[2,3-d]pyrimidine-6-carbonitrile]	8.52	8.52
CC(C)Oc1nn(CC(F)(F)F)cc1Nc1ncc2cc(C#N)n([C@H]3COC[C@@H]3C)c2n1 [Example 25, 2-((3-Isopropoxy-1-(2,2,2-trifluoroethyl)-1H-pyrazol-4-yl)amino)-7-((3R,4R)-4-methyltetrahydrofuran-3-yl)-7H-pyrrolo[2,3-d]pyrimidine-6-carbonitrile]	9.00	9.00
CC(C)Oc1nn(C)cc1Nc1ncc2cc(C#N)n([C@H]3COC[C@@H]3C)c2n1 [Example 26, 2-((3-Isopropoxy-1-methyl-1H-pyrazol-4-yl)amino)-7-((3R,4R)-4-methyltetrahydrofuran-3-yl)-7H-pyrrolo[2,3-d]pyrimidine-6-carbonitrile]	9.00	9.00
C[C@H]1COC[C@@H]1n1c(C#N)cc2cnc(Nc3cn(C(C)(C)C#N)nc3OC3COC3)nc21 [Example 27, 2-((1-(2-Cyanopropan-2-yl)-3-(oxetan-3-yloxy)-1H-pyrazol-4-yl)amino)-7-((3R,4R)-4-methyltetrahydrofuran-3-yl)-7H-pyrrolo[2,3-d]pyrimidine-6-carbonitrile]	9.00	9.00
[2H]C([2H])([2H])n1cc(Nc2ncc3cc(C#N)n([C@H]4COC[C@@H]4C)c3n2)c(OC2CC2)n1 [Example 28, 2-((3-Cyclopropoxy-1-(methyl-d3)-1H-pyrazol-4-yl)amino)-7-((3R,4R)-4-methyltetrahydrofuran-3-yl)-7H-pyrrolo[2,3-d]pyrimidine-6-carbonitrile]	8.52	8.52
CC(C)Oc1nn(C(C)(C)C#N)cc1Nc1ncc2cc(C#N)n([C@H]3COC[C@@H]3C)c2n1 [Example 29, 2-((1-(2-Cyanopropan-2-yl)-3-isopropoxy-1H-pyrazol-4-yl)amino)-7-((3R,4R)-4-methyltetrahydrofuran-3-yl)-7H-pyrrolo[2,3-d]pyrimidine-6-carbonitrile]	9.00	9.00
C[C@H]1COC[C@@H]1n1c(C#N)cc2cnc(Nc3cn(C4COC4)nc3OC3CC3)nc21 [Example 30, 2-((3-Cyclopropoxy-1-(oxetan-3-yl)-1H-pyrazol-4-yl)amino)-7-((3R,4R)-4-methyltetrahydrofuran-3-yl)-7H-pyrrolo[2,3-d]pyrimidine-6-carbonitrile]	8.30	8.52
CC(C)Oc1nn(C2COC2)cc1Nc1ncc2cc(C#N)n([C@H]3COC[C@@H]3C)c2n1 [Example 31, 2-((3-Isopropoxy-1-(oxetan-3-yl)-1H-pyrazol-4-yl)amino)-7-((3R,4R)-4-methyltetrahydrofuran-3-yl)-7H-pyrrolo[2,3-d]pyrimidine-6-carbonitrile]	8.70	8.70
C[C@H]1COC[C@@H]1n1c(C#N)cc2cnc(Nc3cn(C)nc3OCC(C)(C)O)nc21 [Example 32, 2-((3-(2-Hydroxy-2-methylpropoxy)-1-methyl-1H-pyrazol-4-yl)amino)-7-((3R,4R)-4-methyltetrahydrofuran-3-yl)-7H-pyrrolo[2,3-d]pyrimidine-6-carbonitrile]	8.15	8.15
COCn1cc(Nc2ncc3cc(C#N)n([C@H]4COC[C@@H]4C)c3n2)c(OC2COC2)n1 [Example 33, 2-((1-(Methoxymethyl)-3-(oxetan-3-yloxy)-1H-pyrazol-4-yl)amino)-7-((3R,4R)-4-methyltetrahydrofuran-3-yl)-7H-pyrrolo[2,3-d]pyrimidine-6-carbonitrile]	7.85	8.05
C[C@H]1COC[C@@H]1n1c(C#N)cc2cnc(Nc3cn(S(C)(=O)=O)nc3OC3COC3)nc21 [Example 34, 2-((1-(Methylsulfonyl)-3-(oxetan-3-yloxy)-1H-pyrazol-4-yl)amino)-7-((3R,4R)-4-methyltetrahydrofuran-3-yl)-7H-pyrrolo[2,3-d]pyrimidine-6-carbonitrile]	8.15	8.30
COCn1cc(Nc2ncc3cc(C#N)n([C@H]4COC[C@@H]4C)c3n2)c(OC2CC2)n1 [Example 35, 2-((3-Cyclopropoxy-1-(methoxymethyl)-1H-pyrazol-4-yl)amino)-7-((3R,4R)-4-methyltetrahydrofuran-3-yl)-7H-pyrrolo[2,3-d]pyrimidine-6-carbonitrile]	8.40	8.22
C[C@H]1COC[C@@H]1n1c(C#N)cc2cnc(Nc3cn(CS(C)(=O)=O)nc3OC3CC3)nc21 [Example 36, 2-((3-Cyclopropoxy-1-((methylsulfonyl)methyl)-1H-pyrazol-4-yl)amino)-7-((3R,4R)-4-methyltetrahydrofuran-3-yl)-7H-pyrrolo[2,3-d]pyrimidine-6-carbonitrile]	9.00	9.00
C[C@H]1COC[C@@H]1n1c(C#N)cc2cnc(Nc3cn(C4CC4)nc3OC3COC3)nc21 [Example 37, 2-((1-Cyclopropyl-3-(oxetan-3-yloxy)-1H-pyrazol-4-yl)amino)-7-((3R,4R)-4-methyltetrahydrofuran-3-yl)-7H-pyrrolo[2,3-d]pyrimidine-6-carbonitrile]	8.10	8.22
CCn1cc(Nc2ncc3cc(C#N)n([C@H]4COC[C@@H]4C)c3n2)c(OC2COC2)n1 [Example 38, 2-((1-Ethyl-3-(oxetan-3-yloxy)-1H-pyrazol-4-yl)amino)-7-((3R,4R)-4-methyltetrahydrofuran-3-yl)-7H-pyrrolo[2,3-d]pyrimidine-6-carbonitrile]	8.22	8.30
C[C@H]1COC[C@@H]1n1c(C#N)cc2cnc(Nc3cn(C)nc3OC3CCC34COC4)nc21 (stereo partly drawn) [Example 40, 2-[[1-methyl-3-[(2-oxaspiro[3.3]heptan-7-yl)oxy]pyrazol-4-yl]amino]-7-[(3R,4R)-4-methyltetrahydrofuran-3-yl]pyrrolo[2,3-d]pyrimidine-6-carbonitrile]	9.00	9.00
C[C@H]1COC[C@@H]1n1c(C#N)cc2cnc(Nc3ccc(CN(C)C)cc3OC3CC3)nc21 [Example 41, 2-((2-Cyclopropoxy-4-((dimethylamino)methyl)phenyl)amino)-7-((3R,4R)-4-methyltetrahydrofuran-3-yl)-7H-pyrrolo[2,3-d]pyrimidine-6-carbonitrile]	8.40	8.52
[2H]C([2H])([2H])n1cc(Nc2ncc3cc(C#N)n([C@H]4COC[C@@H]4C)c3n2)c(OC(C)C)n1 [Example 42, 2-((3-Isopropoxy-1-(methyl-d3)-1H-pyrazol-4-yl)amino)-7-((3R,4R)-4-methyltetrahydrofuran-3-yl)-7H-pyrrolo[2,3-d]pyrimidine-6-carbonitrile]	9.00	8.70
C[C@@H]1COC[C@H]1n1c(C#N)cc2cnc(Nc3cn(C)nc3OC3COC3)nc21 [Example 44, 2-((1-Methyl-3-(oxetan-3-yloxy)-1 H-pyrazol-4-yl)amino)-7-((3S,4S)-4-methyltetrahydrofuran-3-yl)-7H-pyrrolo[2,3-d]pyrimidine-6-carbonitrile]	6.71	6.72
CO[C@H]1COC[C@H]1n1c(C#N)cc2cnc(Nc3ccc(C(C)(C)O)cc3OC3COC3)nc21 [Example 55, 2-((4-(2-Hydroxypropan-2-yl)-2-(oxetan-3-yloxy)phenyl)amino)-7-((3R,4R)-4-methoxytetrahydrofuran-3-yl)-7H-pyrrolo[2,3-d]pyrimidine-6-carbonitrile]	7.39	7.74
CC(C)Oc1nn(C(C)(C)C#N)cc1Nc1ncc2cc(C#N)n(C3COC3)c2n1 [Example 74, 2-((1-(2-Cyanopropan-2-yl)-3-isopropoxy-1H-pyrazol-4-yl)amino)-7-(oxetan-3-yl)-7H-pyrrolo[2,3-d]pyrimidine-6-carbonitrile]	7.70	7.85
